Results: article PMC3826149, “Red Algal Bromophenols as Glucose 6-Phosphate Dehydrogenase Inhibitors” (Marine Drugs, 2013)

Key:
[1] = biological target: T1, glucose 6-phosphate dehydrogenase (G6PD) (Leuconostoc mesenteroides, UniProt P11411); assay: G6PD enzyme inhibition assay (colorimetric, WST-1/1-methoxy PMS); format: biochemical; settings: for IC50: Mean ± SD (n = 3), glucose 6-phosphate 3.0 mM, NADP+ 0.3 mM, read-out: IC50 on glucose 6-phosphate dehydrogenase (G6PD) reaction; for G6PD inhibition in words: qualitative statement
T1 construct: purchased Sigma-Aldrich (St. Louis, MO, USA)
T1 sequence (P11411 1-486): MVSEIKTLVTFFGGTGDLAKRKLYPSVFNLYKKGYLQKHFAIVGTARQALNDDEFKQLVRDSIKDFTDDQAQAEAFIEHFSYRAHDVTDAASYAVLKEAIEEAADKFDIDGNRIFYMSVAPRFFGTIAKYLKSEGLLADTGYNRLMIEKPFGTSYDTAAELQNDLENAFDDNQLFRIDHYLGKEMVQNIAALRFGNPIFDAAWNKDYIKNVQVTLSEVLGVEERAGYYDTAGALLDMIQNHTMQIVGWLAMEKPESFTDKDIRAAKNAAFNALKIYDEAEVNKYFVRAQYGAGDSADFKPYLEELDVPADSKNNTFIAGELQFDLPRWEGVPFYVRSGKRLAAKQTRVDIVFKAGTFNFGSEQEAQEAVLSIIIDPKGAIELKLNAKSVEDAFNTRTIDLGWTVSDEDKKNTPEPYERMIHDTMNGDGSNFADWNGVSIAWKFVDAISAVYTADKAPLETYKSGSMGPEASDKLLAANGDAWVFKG
Description: G6PD (EC 1.1.1.49) from Leuconostoc mesenteroides was purchased from Sigma-Aldrich (St. Louis, MO, USA). WST-1 and 1-methoxy-5-methylphenazinium methylsulfate (1-methoxy PMS) were purchased from Dojindo Laboratories (Mashiki, Kumamoto, Japan) and oxidized nicotinamide adenine dinucleotide phosphate (NADP^+) from Oriental Yeast Industries (Tokyo, Japan). Glucose 6-phosphate was purchased from Wako Pure Chemicals (Tokyo, Japan). Epigallocatechin gallate (EGCG) was purchased from Cayman Chemical Company (Ann Arbor, MI, USA). Thin layer chromatography (TLC) was carried out using a glass plate precoated with silica gel 60 F254 and RP-18 (Merck, Darmstadt, Germany), and spots were detected under UV light and visualized by spraying 50% sulfuric acid and potassium ferricyanide-ferric chloride reagents. NMR spectra were recorded in acetone-d6 on a Bruker AMX-500 (Karlsruhe, Germany) spectrometer at 500 MHz for proton and 125 MHz for carbon chemical shifts. Field desorption-MS spectra were recorded on a JEOL JMS-T100GCV spectrometer (Tokyo, Japan).
Enzyme assay was carried out by colorimetric method as described in literature with slight modification. The reaction mixture was prepared by adding 135 mM Tris-HCl buffer (pH 7.8, 675 μL), 30 mM glucose 6-phosphate (100 μL), 3 mM NADP^+ (100 μL), 20 mM MgCl2 (100 μL) and test materials in MeOH (15 μL). Reaction was initiated by adding 0.035 U/mL G6PD solution (10 μL) to the reaction mixture. Each reaction was carried out at 25 °C for 15 min and terminated by adding 1 mL of saturated aqueous NaCl solution. For determination of produced NADPH, 0.05 mM WST-1 (400 μL) and 0.025 mM 1-methoxy PMS (400 μL) were mixed to the reaction mixture (400 μL) and the absorbance was measured at 438 nm. EGCG was used as a positive control.

[2] = biological target: purified α-glucosidase; parameters: method as in PMID 20629879; settings: previous study; cited from earlier work
[3] = read-out: Inhibition (%) of G6PD

| Compound | IC50 [1] | G6PD inhibition in words [1] | also measured |
| --- | --- | --- | --- |
| O=Cc1cc(Br)c(O)c(Br)c1 [Compound 1] | 76.6 ± 1.1 µM |  |  |
| OCc1cc(O)c(O)c(Br)c1 [Compound 2] | > 370 µM | low inhibition | inhibition at 370 µM [1, 3]: 37.6% |
| O=C(O[C@@H]1Cc2c(O)cc(O)cc2O[C@@H]1c1cc(O)c(O)c(O)c1)c1cc(O)c(O)c(O)c1 [Epigallocatechin gallate, reference compound] | 7.7 ± 0.14 µM |  |  |
| Oc1cc(COCc2cc(O)c(O)c(Br)c2Br)c(Br)c(Br)c1O [Compound 5] | 0.85 ± 0.1 µM |  | IC50 [2]: 1000 to 1200 µM; fold lower IC50 value than epigallocatechin gallate (EGCG) ([1]; G6PD IC50 relative to known inhibitor EGCG): 9.1 fold |
| COCc1cc(O)c(O)c(Br)c1 [Compound 3] | > 340 µM | low inhibition | inhibition at 340 µM [1, 3]: 35.7% |
| OCc1cc(O)c(O)c(Br)c1Cc1cc(O)c(O)c(Br)c1Br [Compound 4] | 4.01 ± 0.3 µM |  |  |
